Data: ChEMBL document CHEMBL4680222, “Sensitive fluorogenic substrates for sirtuin deacylase inhibitor discovery” (Eur J Med Chem, 2020)
The source made the active and inactive calls. The calls are words filed in the database; no cut-off is given here. *1 amine or outer side, *2 acyl side, *3 side chain or, on linkers, in order; H or OH if unused. Where a SMILES comes first, the peptide text is derived from it. The star is where a group is joined. AMC = Cc1cc(=O)oc2cc(N*)ccc12; Suc = O=C(CCC(=O)[*:2])[*:1]; Decanoyl = CCCCCCCCCC(=O)*

Assays:
[1] = target: T1, NAD-dependent protein deacetylase sirtuin-2 (Homo sapiens) (UniProt Q8IXJ6); assay: Substrate activity at human N-terminal His-tagged SIRT2 (56 to 356 residues) expressed in Escherichia coli at 50 uM measured after 2 hrs in presence of NAD+ and trypsin by fluorescence assay
T1 sequence (whole entry): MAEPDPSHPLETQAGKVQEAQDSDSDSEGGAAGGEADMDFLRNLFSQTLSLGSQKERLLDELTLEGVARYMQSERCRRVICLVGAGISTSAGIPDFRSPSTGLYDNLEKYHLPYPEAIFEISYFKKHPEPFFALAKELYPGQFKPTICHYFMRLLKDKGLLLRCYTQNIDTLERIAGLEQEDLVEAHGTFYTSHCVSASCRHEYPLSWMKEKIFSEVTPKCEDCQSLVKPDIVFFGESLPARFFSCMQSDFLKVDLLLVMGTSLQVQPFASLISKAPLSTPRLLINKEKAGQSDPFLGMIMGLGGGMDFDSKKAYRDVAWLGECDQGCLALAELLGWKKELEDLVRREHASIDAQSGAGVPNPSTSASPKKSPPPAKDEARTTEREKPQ

[2] = target: T2, NAD-dependent protein deacetylase sirtuin-3, mitochondrial (Homo sapiens) (UniProt Q9NTG7); assay: Substrate activity at human N-terminal His-tagged SIRT3 (122 to 391 residues) expressed in Escherichia coli at 5 uM measured after 2 hrs in presence of NAD+ and trypsin by fluorescence assay
T2 sequence (whole entry): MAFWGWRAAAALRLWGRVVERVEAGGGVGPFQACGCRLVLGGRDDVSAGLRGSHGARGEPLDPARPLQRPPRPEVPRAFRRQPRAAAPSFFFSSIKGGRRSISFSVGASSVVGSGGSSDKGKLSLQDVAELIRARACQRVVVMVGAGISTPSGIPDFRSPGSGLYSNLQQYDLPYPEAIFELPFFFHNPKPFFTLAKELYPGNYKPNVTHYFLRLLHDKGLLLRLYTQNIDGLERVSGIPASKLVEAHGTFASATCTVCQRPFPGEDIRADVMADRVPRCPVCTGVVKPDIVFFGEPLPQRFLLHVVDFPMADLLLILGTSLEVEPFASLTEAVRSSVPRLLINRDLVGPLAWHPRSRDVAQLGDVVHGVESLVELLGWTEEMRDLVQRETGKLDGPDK

[3] = target: T3, NAD-dependent protein deacetylase sirtuin-7 (Homo sapiens) (UniProt Q9NRC8); assay: Substrate activity at human N-terminal His-tagged SIRT7 (68 to 354 residues) expressed in Escherichia coli at 0.5 uM measured after 2 hrs in presence of NAD+ and trypsin by fluorescence assay
T3 sequence (whole entry): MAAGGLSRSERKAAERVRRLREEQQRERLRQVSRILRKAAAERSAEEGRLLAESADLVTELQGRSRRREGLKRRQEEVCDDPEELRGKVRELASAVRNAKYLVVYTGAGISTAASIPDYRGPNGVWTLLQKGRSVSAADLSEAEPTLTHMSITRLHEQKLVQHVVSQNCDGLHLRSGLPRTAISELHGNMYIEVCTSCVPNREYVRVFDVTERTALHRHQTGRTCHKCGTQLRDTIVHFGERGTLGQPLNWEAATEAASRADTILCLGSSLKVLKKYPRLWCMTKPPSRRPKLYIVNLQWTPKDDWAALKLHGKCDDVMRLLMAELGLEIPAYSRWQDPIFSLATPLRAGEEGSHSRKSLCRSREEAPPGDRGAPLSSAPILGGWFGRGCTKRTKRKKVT

[4] = target: T4, NAD-dependent protein deacetylase sirtuin-1 (Homo sapiens) (UniProt Q96EB6); assay: Substrate activity at human N-terminal His-tagged SIRT1 (183 to 664 residues) expressed in Escherichia coli at 5 uM measured after 2 hrs in presence of NAD+ and trypsin by fluorescence assay
T4 sequence (whole entry): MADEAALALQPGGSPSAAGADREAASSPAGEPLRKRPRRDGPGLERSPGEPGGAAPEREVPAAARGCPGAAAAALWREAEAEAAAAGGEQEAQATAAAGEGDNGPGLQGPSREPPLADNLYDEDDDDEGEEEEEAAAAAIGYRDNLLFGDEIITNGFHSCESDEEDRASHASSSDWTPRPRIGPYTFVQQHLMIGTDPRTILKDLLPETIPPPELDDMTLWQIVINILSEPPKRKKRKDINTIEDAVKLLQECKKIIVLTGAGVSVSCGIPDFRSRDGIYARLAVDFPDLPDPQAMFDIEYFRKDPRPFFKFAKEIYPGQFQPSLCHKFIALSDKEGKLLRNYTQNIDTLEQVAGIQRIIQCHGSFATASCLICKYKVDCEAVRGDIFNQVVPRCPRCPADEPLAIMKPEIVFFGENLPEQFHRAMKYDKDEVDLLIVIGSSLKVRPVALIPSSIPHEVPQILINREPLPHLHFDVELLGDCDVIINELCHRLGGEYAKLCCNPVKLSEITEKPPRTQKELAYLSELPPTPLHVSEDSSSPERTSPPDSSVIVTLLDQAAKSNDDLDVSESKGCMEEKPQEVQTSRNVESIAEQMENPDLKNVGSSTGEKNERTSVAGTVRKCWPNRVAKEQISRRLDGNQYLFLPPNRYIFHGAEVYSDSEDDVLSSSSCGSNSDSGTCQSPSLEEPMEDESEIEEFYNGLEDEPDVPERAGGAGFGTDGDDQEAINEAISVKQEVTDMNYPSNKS

[5] = target: T4, NAD-dependent protein deacetylase sirtuin-1 (Homo sapiens); assay: Substrate activity at human N-terminal His-tagged SIRT1 (183 to 664 residues) expressed in Escherichia coli at 0.5 uM measured after 2 hrs in presence of NAD+ and trypsin by fluorescence assay
[6] = target: NAD-dependent protein deacylase sirtuin-6 (Homo sapiens) (UniProt Q8N6T7); assay: Substrate activity at human N-terminal His-tagged SIRT6 (1 to 355 residues) expressed in Escherichia coli at 50 uM measured after 2 hrs in presence of NAD+ and trypsin by fluorescence assay
NAD-dependent protein deacylase sirtuin-6 (Homo sapiens), sequence (Q8N6T7 whole entry, the tested form may be a part): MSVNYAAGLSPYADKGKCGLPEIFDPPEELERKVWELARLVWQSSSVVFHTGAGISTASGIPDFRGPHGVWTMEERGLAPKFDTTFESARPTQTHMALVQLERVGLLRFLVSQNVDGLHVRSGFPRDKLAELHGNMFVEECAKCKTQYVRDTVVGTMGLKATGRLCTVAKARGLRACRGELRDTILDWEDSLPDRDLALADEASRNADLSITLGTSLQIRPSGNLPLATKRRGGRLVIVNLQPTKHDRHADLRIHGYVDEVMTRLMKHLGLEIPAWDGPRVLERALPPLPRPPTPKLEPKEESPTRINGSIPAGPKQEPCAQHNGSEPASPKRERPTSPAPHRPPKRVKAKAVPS

[7] = target: T3, NAD-dependent protein deacetylase sirtuin-7 (Homo sapiens); assay: Substrate activity at human N-terminal His-tagged SIRT7 (68 to 354 residues) expressed in Escherichia coli at 50 uM measured after 2 hrs in presence of NAD+ and trypsin by fluorescence assay
[8] = target: T1, NAD-dependent protein deacetylase sirtuin-2 (Homo sapiens); assay: Substrate activity at human N-terminal His-tagged SIRT2 (56 to 356 residues) expressed in Escherichia coli at 0.5 uM measured after 2 hrs in presence of NAD+ and trypsin by fluorescence assay
[9] = target: T2, NAD-dependent protein deacetylase sirtuin-3, mitochondrial (Homo sapiens); assay: Substrate activity at human N-terminal His-tagged SIRT3 (122 to 391 residues) expressed in Escherichia coli at 50 uM measured after 2 hrs in presence of NAD+ and trypsin by fluorescence assay
[10] = target: NAD-dependent protein deacylase sirtuin-6 (Homo sapiens) (UniProt Q8N6T7); assay: Substrate activity at human N-terminal His-tagged SIRT6 (1 to 355 residues) expressed in Escherichia coli at 0.5 uM measured after 2 hrs in presence of NAD+ and trypsin by fluorescence assay
[11] = target: NAD-dependent protein deacylase sirtuin-5, mitochondrial (Homo sapiens) (UniProt Q9NXA8); assay: Substrate activity at human N-terminal His-tagged SIRT5 (34 to 302 residues) expressed in Escherichia coli at 5 uM measured after 2 hrs in presence of NAD+ and trypsin by fluorescence assay
NAD-dependent protein deacylase sirtuin-5, mitochondrial (Homo sapiens), sequence (Q9NXA8 37-310 limits assumed): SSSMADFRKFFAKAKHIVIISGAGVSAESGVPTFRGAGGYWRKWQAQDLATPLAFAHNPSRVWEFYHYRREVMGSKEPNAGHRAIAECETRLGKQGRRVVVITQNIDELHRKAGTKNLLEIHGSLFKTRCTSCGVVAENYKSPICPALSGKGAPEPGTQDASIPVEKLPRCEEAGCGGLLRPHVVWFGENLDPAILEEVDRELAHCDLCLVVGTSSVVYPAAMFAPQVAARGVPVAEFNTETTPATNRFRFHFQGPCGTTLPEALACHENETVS

[12] = target: T4, NAD-dependent protein deacetylase sirtuin-1 (Homo sapiens); assay: Substrate activity at human N-terminal His-tagged SIRT1 (183 to 664 residues) expressed in Escherichia coli at 50 uM measured after 2 hrs in presence of NAD+ and trypsin by fluorescence assay
[13] = target: T2, NAD-dependent protein deacetylase sirtuin-3, mitochondrial (Homo sapiens); assay: Substrate activity at human N-terminal His-tagged SIRT3 (122 to 391 residues) expressed in Escherichia coli at 0.5 uM measured after 2 hrs in presence of NAD+ and trypsin by fluorescence assay
[14] = target: T1, NAD-dependent protein deacetylase sirtuin-2 (Homo sapiens); assay: Substrate activity at human N-terminal His-tagged SIRT2 (56 to 356 residues) expressed in Escherichia coli at 5 uM measured after 2 hrs in presence of NAD+ and trypsin by fluorescence assay
[15] = target: NAD-dependent protein deacylase sirtuin-5, mitochondrial (Homo sapiens) (UniProt Q9NXA8); assay: Substrate activity at human N-terminal His-tagged SIRT5 (34 to 302 residues) expressed in Escherichia coli at 0.5 uM measured after 2 hrs in presence of NAD+ and trypsin by fluorescence assay
[16] = target: T3, NAD-dependent protein deacetylase sirtuin-7 (Homo sapiens); assay: Substrate activity at human N-terminal His-tagged SIRT7 (68 to 354 residues) expressed in Escherichia coli at 5 uM measured after 2 hrs in presence of NAD+ and trypsin by fluorescence assay
[17] = target: NAD-dependent protein deacylase sirtuin-6 (Homo sapiens) (UniProt Q8N6T7); assay: Substrate activity at human N-terminal His-tagged SIRT6 (1 to 355 residues) expressed in Escherichia coli at 5 uM measured after 2 hrs in presence of NAD+ and trypsin by fluorescence assay
[18] = target: NAD-dependent protein deacylase sirtuin-5, mitochondrial (Homo sapiens) (UniProt Q9NXA8); assay: Substrate activity at human N-terminal His-tagged SIRT5 (34 to 302 residues) expressed in Escherichia coli at 5 uM measured after 1 hr in presence of NAD+ and trypsin by fluorescence assay
[19] = target: NAD-dependent protein deacylase sirtuin-5, mitochondrial (Homo sapiens) (UniProt Q9NXA8); assay: Substrate activity at human N-terminal His-tagged SIRT5 (34 to 302 residues) expressed in Escherichia coli at 50 uM measured after 2 hrs in presence of NAD+ and trypsin by fluorescence assay
[20] = target: T1, NAD-dependent protein deacetylase sirtuin-2 (Homo sapiens); assay: Substrate activity at human N-terminal His-tagged SIRT2 (56 to 356 residues) expressed in Escherichia coli at 5 uM measured after 1 hr in presence of NAD+ and trypsin by fluorescence assay

Activity [1] [RFU] | Activity [2] [RFU] | Activity [3] [RFU] | Activity [4] [RFU] | Activity [5] [RFU] | Activity [6] [RFU] | Activity [7] [RFU] | Activity [8] [RFU] | Activity [9] [RFU] | Activity [10] [RFU] | Activity [11] [RFU] | Activity [12] [RFU] | Activity [13] [RFU] | Activity [14] [RFU] | Activity [15] [RFU] | Activity [16] [RFU] | Activity [17] [RFU] | Activity [18] | Activity [19] [RFU] | Activity [20] | Compound
0.9 | 0.56 | 0.28 | 0.35 | 0.2 | 1.14 | 1.14 | 0.2 | 1.42 | 0.41 | 25.1 | 0.98 | 0.5 | 0.21 | 3.07 | 0.32 | 0.37 | Active | 1.41 |  | CC(=O)N[C@@H](CC(C)C)C(=O)NCC(=O)N[C@@H](CO)C(=O)N[C@@H](CCCCNC(=O)CCC(=O)O)C(=O)Nc1ccc2c(C)cc(=O)oc2c1 (Ac-LGSK(Suc)-{AMC})
13.5 | 1.04 | 0.29 | 2.13 | 1.38 | 0.73 | 0.73 | 1.38 | 1.64 | 0.4 | 0.39 | 1.34 | 0.67 | 7.07 | 0.31 | 1.03 | 0.3 |  | 1.08 | Active | CCCCCCCCCC(=O)NCCCC[C@H](NC(=O)[C@@H](NC(=O)[C@H](CO)NC(=O)[C@H](CO)NC(C)=O)[C@@H](C)CC)C(=O)Nc1ccc2c(C)cc(=O)oc2c1 (Ac-SSIK(Decanoyl)-{AMC})
1.03 | 0.53 | 0.3 | 0.44 | 0.24 | 1.18 | 1.18 | 0.24 | 1.32 | 0.38 | 21.5 | 1.05 | 0.48 | 0.25 | 3.36 | 0.41 | 0.37 | Active | 1.5 |  | CC(=O)N[C@@H](CO)C(=O)N[C@@H](CC(C)C)C(=O)NCC(=O)N[C@@H](CCCCNC(=O)CCC(=O)O)C(=O)Nc1ccc2c(C)cc(=O)oc2c1 (Ac-SLGK(Suc)-{AMC})
79.9 | 0.66 | 0.28 | 1.37 | 2.97 | 0.73 | 0.73 | 2.97 | 1.86 | 0.39 | 0.42 | 4.13 | 0.51 | 20.6 | 0.3 | 0.38 | 0.33 |  | 1.24 | Active | CCCCCCCCCC(=O)NCCCC[C@H](NC(=O)[C@H](CC(=O)O)NC(=O)[C@@H](NC(=O)[C@H](CCC(=O)O)NC(C)=O)[C@@H](C)O)C(=O)Nc1ccc2c(C)cc(=O)oc2c1 (Ac-ETDK(Decanoyl)-{AMC})
